Source: patent publication US9643971B2 (GALLEON PHARMACEUTICALS, INC., priority 2013, dated 2017)
Counter-ions that a name gives are not always drawn.

How the values were obtained:
[1] = In vitro metabolic stability in human liver microsomes (HLM); settings: both, human, liver microsomes
in vitro = settings: male, rat, microsomes
anesthetized rat = test: Anesthetized rat spirometry screening assay; assay type: in vivo; settings: 2 minute AUC of minute volume increase vs. comparator N-[2,6-di-(n-propylamino)-[1,3]pyrimidin-4-yl]-N,O-dimethyl-hydroxylamine
Source text: Effect of Compounds of the Invention on Respiratory Rate (RR), Tidal Volume (VT), and the Product Minute Volume Using an Anesthetized Rat Spirometry Screening Assay
Anesthetized rats provide a quick method of screening compounds for respiratory and cardiovascular activity. In contrast to the conscious rat model, this model offers an experimental set up with less variation in the baseline cardiovascular and respiratory measures. Compounds screened in this assay may be examined in a conscious rat model.
Rats were initially anesthetized with 3% isoflurane (inhaled) and femoral artery and vein cannulas were surgically inserted. Once cannulated, the rats were transitioned to urethane anesthesia (1.5 g/kg; i.v.) and a tracheal cut-down was performed. After placing the tracheal cannula, it was connected to a pneumotachometer to record respiratory airflow from which respiratory rate (RR), tidal volume (VT), and their product minute volume were derived. After the surgical preparation was complete, animals were allowed to stabilize for 30 minutes while respiratory rate, tidal volume, minute volume, blood pressure and heart rate were recorded continuously. Arterial blood gases (ABG) were obtained from arterial blood collected from the femoral artery. ABG measurements were taken before and 6 minutes after vehicle and each dose of compound administered. Compounds being screened were administered via bolus injections through the venous cannula followed by a saline flush (total time of administration is approximately 30 seconds), and the animal was monitored for at least 6 minutes for changes in cardiovascular efforts. Compounds were prepared in formulations identified to ensure optimal solubility. As such, vehicle controls were matched for the formulation of each compound tested. Dosing of the compound being screened was 0.1 and 0.3 mg/kg. The next dose was not administered until all cardiovascular and respiratory measures had returned to baseline levels. The positive control compounds used were N-[4,6-di-(n-propylamino)-[1,3,5]triazin-2-yl]-N,O-dimethyl-hydroxylamine or N-[2,6-di-(n-propylamino)-[1,3]pyrimidin-4-yl]-N,O-dimethyl-hydroxylamine (both administered at the end of each screening experiment (0.3 mg/kg dose) to validate the experiment and also to serve as a measure with which the compound being screened could be compared.
Data were analyzed by collecting cardiovascular and respiratory data in 30 second averages (BINs). Data were plotted 2 minutes before challenge and then 6 minutes after challenge.

SMILES	half-life at 5 μM [1]	half-life at 5 μM (in vitro)	AUC MV Inc (2 min) (ratio vs. std*) (anesthetized rat)
CCCNc1nc(N(CC)CC)nc2c(NCCC)nc(NC)nc12.Cl [Compound 31a, N^2,N^2-Diethyl-N^6-methyl-N^4,N^8-di-n-propyl-pyrimido[5,4-d]pyrimidine-2,4,6,8-tetraamine hydrochloride]	6.95 h	1.8 h	0.01 ratio vs. std
CCCNc1nc(NCc2ccc(Cl)c(Cl)c2)nc2c(NCCC)nc(NC)nc12 [Compound 51a, N^2-(3,4-Dichlorobenzyl)-N^6-methyl-N^4,N^8-di-n-propyl-pyrimido[5,4-d]pyrimidine-2,4,6,8-tetraamine]	2.12 h	1.2 h	0.08 ratio vs. std
CCCNc1nc(N2CCCC2)nc2c(NCCC)nc(NC)nc12 [Compound 45a, N^2-Methyl-N^4,N^8-di-n-propyl-6-pyrrolidin-1-yl-pyrimido[5,4-d]pyrimidine-2,4,8-triamine]	> 8.33 h	> 8.33 h	0.41 ratio vs. std
CCCNc1nc(NCCOC)nc2c(NCCC)nc(NC)nc12 [Compound 35a, N^2-(2-Methoxyethyl)-N^6-methyl-N^4,N^8-di-n-propyl-pyrimido[5,4-d]pyrimidine-2,4,6,8-tetraamine]	3.75 h	1.7 h	1.33 ratio vs. std
CNc1nc(NC)c2nc(NC)nc(NC)c2n1.Cl [Compound 79a, N^2,N^4,N^6,N^8-Tetramethyl-pyrimido[5,4-d]pyrimidine-2,4,6,8-tetraamine hydrochloride]	> 8.33 h	6.47 h	0.00 ratio vs. std
CCCNc1nc(NCc2cccc(Cl)c2C)nc2c(NCCC)nc(NC)nc12 [Compound 49a, N^2-(3-Chloro-2-methyl-benzyl)-N^6-methyl-N^4,N^8-di-n-propyl-pyrimido[5,4-d]pyrimidine-2,4,6,8-tetraamine hydrochloride]	3.17 h	1.4 h	0.11 ratio vs. std
CCCNc1nc(N(C)OC)nc2c(NCCC)nc(Cl)nc12.Cl [Compound 17a, N-(6-Chloro-4,8-bis-n-propylamino-pyrimido[5,4-d]pyrimidin-2-yl)-O,N-dimethyl-hydroxylamine hydrochloride]	0.483 h	0.417 h	0.05 ratio vs. std

Further lines, with some results ahead:

half-life at 5 μM [1]	half-life at 5 μM (in vitro)	SMILES	AUC MV Inc (2 min) (ratio vs. std*) (anesthetized rat)
2.02 h	1.73 h	CCCNc1nc(NC)c2nc(-c3ccc(F)cc3)nc(NC)c2n1 [Compound 112a, N^4,N^8-Dimethyl-N^2-n-Propyl-6-(4-fluorophenyl)-pyrimido[5,4-d]pyrimidine-2,4,8-triamine]	0.14 ratio vs. std
5.08 h	4.15 h	CCCNc1nc(-c2ccc(F)cc2)nc2c(NCCC)nc(NC)nc12 [Compound 114a, N^2-Methyl-N^4,N^8-di-n-propyl-6-(4-fluoro-phenyl)-pyrimido[5,4-d]pyrimidine-2,4,8-triamine]	0.05 ratio vs. std
1.9 h	1.37 h	CCCNc1nc(OC)nc2c(NCCC)nc(NC)nc12 [Compound 120a, 6-Methoxy-N^2-methyl-N^4,N^8-di-n-propyl-pyrimido[5,4-d]pyrimidine-2,4,8-triamine]	0.36 ratio vs. std
1.7 h	0.4 h	CNc1nc(N(C)NC)nc2c(NC)nc(N(C)NC)nc12 [Compound 91, 2,6-bis-(N,N′-dimethyl-hydrazino)-N^4,N^8-dimethyl-pyrimido[5,4-d]pyrimidine-4,8-diamine]	0.08 ratio vs. std
1.18 h	0.833 h	CCCNc1nc(NCC2CC2)nc2c(NCCC)nc(NCC3CC3)nc12 [Compound 140a, N^2,N^6-Bis-cyclopropylmethyl-N^4,N^8-di-n-propyl-pyrimido[5,4-d]pyrimidine-2,4,6,8-tetraamine]	–
